Data: patent publication US20160138057A1, “Methods for enhancing alpha-ketoglutarata production in Yarrowia lipolytica” (priority 2014, published 2016)

Experiments:
[1] = system: recombinant Y. lipolytica (Y. lipolytica-GDH2); assay: Intracellular glutamate content of recombinant strain fermented with L-methionine imide; type: cell-based, Yarrowia lipolytica
Description: Determination of GDH catalytic activity and intracellular amino acid content: cells were collected by centrifugation in the exponential growth phase and washed by 0.9% saline, then suspended by 10 mL buffer (0.1 M KH2PO4-K2HPO4, 1 mM EDTA, 0.01 mM DTT, pH 7.5). Pickling glass beads was added for grinding for 5 min at 4° C., and then centrifuged at 13000×g for 10 min. The supernatant was used for the determination of catalytic activity of GDH and the intracellular amino acid content.
Intracellular glutamate and glutamine was determinated by the following steps: 200 μl cell disruption supernatant and 800 μL 5% trichloroacetic acid was sequentially added to an 1 mL EP tube and standed for 5 min. 1 mL sample was filtered by 0.22 μm aqueous filter head and then centrifuged at 10000 rpm for 10 min. The amino acid content of the treated sample was measured by HPLC.
The HPLC conditions were as follows: pre-column derivatization of sample was carried out by […] (OPA) and 9-Fluorenylmethyl Chloroformate. […]
The wild type Y. lipolytica WSH-Z06 and the recombinant strain Y. lipolytica-GDH2 were incubated in 500 mL flasks with 50 mL fermentation medium at 28° C., 200 rpm for 96 hours at the same time. […] The glutamate contents were quantified by the methods described above.

[2] = system: recombinant Y. lipolytica (Y. lipolytica-GDH2); assay: Extracellular α-KG accumulation of recombinant strain fermented with L-methionine imide; type: cell-based, Yarrowia lipolytica
Description: Fermentation medium: 36.1 mg·L^−1 L-methionine imine, 100 g·L^−1 glycerol, 3 g·L^−1 (NH4)2SO4, 3 g·L^−1 KH2PO4, 1.2 g·L^−1 MgSO4·7H2O, 0.5 g·L^−1 NaCl, 0.1 g·L^−1 K2HPO4, 2×10^−7 g·L^−1 thiamine hydrochloride, pH 4.5, and then sterilized at 115° C. for 15 min. CaCO3 sterilized at 121° C. for 30 min was added to 20 g·L^−1 before inoculation.
Extracellular α-KG was quantified by HPLC. Appropriate supernatant of fermentation broth centrifuged at 13000×g was diluted 50-fold with ultrapure water and filtrated by 0.22 μm filter for HPLC analysis. The column was Aminex HPX-87H ion exchange column and 5 mmol·L^−1 sulfuric acid solution (550 μL concentrated sulfuric acid volumed to 2 L) filtrated by 0.22 μm filter and degassed was used as mobile phase. The velocity of flow was 0.6 mL·min^−1 with a column temperature at 35° C. and a injection volume of 10 μL. The wavelength of UV detector was 210 nm.
α-KG was produced as the method described above. The wild type Y. lipolytica WSH-Z06 and the recombinant strain Y. lipolytica-GDH2 were incubated in 500 mL flasks with 50 mL fermentation medium containing L-methionine imide at 28° C., 200 rpm for 144 hours at the same time to accumulate α-KG extracellular.

For `CSCC[C@H](N)C(N)=O` [L-methionine imide], the “content of glutamate intracellular” value ([1]; 0.2 mM L-methionine imide added during fermentation of the recombinant strain) was 0.99 μmol per mg dry cells weight (DCW), the “increase of intracellular glutamate content” value ([1]; 0.2 mM L-methionine imide, recombinant strain, versus wild type strain) was 86.3% and the “increase of extracellular α-KG accumulation” value ([2]; 0.2 mM L-methionine imide, versus wild type strain) was 32.4%. The “accumulation of α-KG extracellular” value ([2]; fermentation medium containing L-methionine imide (0.2 mM), 28° C., 200 rpm, 144 hours) was 19.2 g/L.
